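Five concentrations, 48 hours, 96-well plates. Abbreviation: GI50, concentration required for 50% inhibition of growth. At the TGI there is no net growth.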
Key:
Assay in all cases: NCI-60 cell line screen, 48 h
SK-MEL-5 melanoma = tested on: SK-MEL-5 melanoma
ACHN renal = tested on: ACHN renal
OVCAR-5 ovarian = tested on: OVCAR-5 ovarian
U251 CNS = tested on: U251 CNS
A549 NSCLC = tested on: A549 NSCLC
HT29 colon = tested on: HT29 colon
HOP-62 NSCLC = tested on: HOP-62 NSCLC
DU-145 prostate = tested on: DU-145 prostate
OVCAR-3 ovarian = tested on: OVCAR-3 ovarian
LOX IMVI melanoma = tested on: LOX IMVI melanoma

Structure (SMILES)	TGI (SK-MEL-5 melanoma)	TGI (ACHN renal)	TGI (OVCAR-5 ovarian)	TGI (U251 CNS)	TGI (A549 NSCLC)	TGI (HT29 colon)	TGI (HOP-62 NSCLC)	TGI (DU-145 prostate)	TGI (OVCAR-3 ovarian)	GI50 (SK-MEL-5 melanoma)	GI50 (ACHN renal)	GI50 (U251 CNS)	GI50 (LOX IMVI melanoma)	TGI (LOX IMVI melanoma)	GI50 (A549 NSCLC)	GI50 (HT29 colon)	GI50 (HOP-62 NSCLC)	GI50 (DU-145 prostate)	GI50 (OVCAR-3 ovarian)	GI50 (OVCAR-5 ovarian)
C[C@]12CC[C@H]3[C@@H](CCC4=CC(=O)CC[C@@]43C)[C@@H]1CC[C@@H]2C(=O)COS(=O)(=O)c1ccc(Br)cc1	47.9 µM	27.6 µM	35.2 µM	26.2 µM	44.6 µM	30.3 µM	46.6 µM	34.4 µM	28 µM											
Nc1ccccc1NC(=O)c1ccc(CN2CCC/C(=C\c3ccccn3)C2=O)cc1	3.79 µM	> 100 µM		> 100 µM	> 100 µM	> 100 µM	> 100 µM	> 100 µM	> 100 µM	1.46 µM	1.26 µM	1.83 µM	0.696 µM	3.07 µM	2.41 µM	0.443 µM	2.5 µM	3.15 µM	2.37 µM	
CNc1cc2nc3cc(NC)c(C)cc3cc2cc1C	14 µM	20.8 µM	20.2 µM			1.1 µM	16 µM	11.5 µM	10 µM	2.05 µM	0.965 µM		0.446 µM	1.79 µM		0.3 µM	1.3 µM	0.861 µM	1.32 µM	2.75 µM
CC1(C)CCCC(C)(C2CCC3(C)C2C(O)CC2C4(C)CCC(O)C(C)(C)C4C(O)CC23C)O1 (centres undefined)	17.6 µM	24.5 µM	38.4 µM	34.4 µM	24.4 µM	14 µM		32.4 µM						> 100 µM						
Cn1cc(-c2csc(-c3cn(CCCCN4CCCCC4)c4ccc(F)cc34)n2)c2cccnc21			11.3 µM		3.04 µM	3.16 µM	31.1 µM	3.14 µM	3.17 µM						1.67 µM	1.7 µM	14 µM	1.76 µM	1.77 µM	2.86 µM
O=C(NNc1ccc(F)cc1)C1CCC(CNS(=O)(=O)c2ccc(Cl)c(Cl)c2)CC1 (centres undefined)	33.1 µM	13.4 µM	25.2 µM	> 50 µM	4.93 µM		> 50 µM	> 50 µM	13.9 µM	10.8 µM	4.08 µM	10.3 µM	2.08 µM	14.4 µM	0.842 µM		15.9 µM	5.52 µM	2.11 µM	7.7 µM
CCCCCCC/C=C/[C@H]1O[C@]2(O)C(=O)C=C3C[C@@H](O[C@@H]4O[C@H](CO)[C@@H](O)C(O)[C@@H]4O)C[C@@H]3[C@H]2C=C1C (some centres undefined)	8.53 µM	4.28 µM	10.8 µM	4.49 µM	23.4 µM	10 µM		7.44 µM	5.09 µM	4.31 µM	1.13 µM	1.1 µM	0.677 µM	1.61 µM	5.98 µM	4.13 µM		3.52 µM	1.5 µM	4.74 µM
